Assay results from article PMC6874683, “Pyrrothiogatain acts as an inhibitor of GATA family proteins and inhibits Th2 cell differentiation in vitro” (Scientific Reports, 2019).
Where “and” joins values, the source holds several entries; their conditions need not be identical. Equal values may be shown once.

Target: T1, GATA2 (Homo sapiens, UniProt P23769)
T1 construct: we tried to synthesize their full-length proteins using the cell-free system; made in house; host or cells: wheat cell-free protein synthesis system (WEPRO1240 kit)
T1 sequence (P23769 1-480): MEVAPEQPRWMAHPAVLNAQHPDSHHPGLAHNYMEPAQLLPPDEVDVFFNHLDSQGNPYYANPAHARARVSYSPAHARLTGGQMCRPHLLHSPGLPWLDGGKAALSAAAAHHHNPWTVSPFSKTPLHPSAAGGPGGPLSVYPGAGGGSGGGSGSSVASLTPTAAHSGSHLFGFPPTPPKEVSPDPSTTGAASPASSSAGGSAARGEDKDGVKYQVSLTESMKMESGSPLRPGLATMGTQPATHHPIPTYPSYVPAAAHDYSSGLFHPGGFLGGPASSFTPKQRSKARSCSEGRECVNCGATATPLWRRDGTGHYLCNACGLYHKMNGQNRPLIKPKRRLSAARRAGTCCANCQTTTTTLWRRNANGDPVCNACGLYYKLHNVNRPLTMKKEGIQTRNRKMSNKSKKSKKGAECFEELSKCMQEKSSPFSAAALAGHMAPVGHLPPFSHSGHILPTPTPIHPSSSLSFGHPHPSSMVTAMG
Test: AlphaScreen DNA-binding assay, GATA2
Conditions: pyrrothiogatain 0 to 200 µM
Description: For the protein-DNA binding assay on a 384-well AlphaPlate (Perkin Elmer), 10 μL of bait protein mixture containing 1 µL FLAG-tagged protein in AlphaScreen Buffer (100 mM Tris-HCl (pH 8.0), 150 mM NaCl, 0.1% Tween 20, and 1 mg/mL BSA) and 5 µL biotinylated oligonucleotide (0–10 µM final concentration) in AlphaScreen Buffer were dispended into the AlphaPlate. Then, the plate was incubated at 26 °C for 1 h. After incubation, 10 μL of the detection mixture containing 0.4 µg/mL Anti-DYKDDDDK antibody (1E6, Wako), 0.1 μL streptavidin-conjugated AlphaScreen donor beads, and 0.1 μL protein A-conjugated AlphaScreen acceptor beads in AlphaScreen Buffer was mixed and incubated at 26 °C for 1 h, and then, the AlphaScreen signal was detected using an EnVision device with the AlphaScreen signal detection program (PerkinElmer).
For the AlphaScreen-based chemical library screening, we used a diverse set of 9,600 synthesized chemicals established by the Drug Discovery Initiative (The University of Tokyo, Tokyo, Japan). All chemical compounds (10 mM) were dissolved in DMSO, and were pre-dispensed into a 384-well Alphaplate (250 nL/well). […] The AlphaScreen signal was detected using an EnVision device with the AlphaScreen signal detection program (PerkinElmer). […]

IC50: ~50 µM and 45 µM
SMILES: Cc1ccc(C)n1-c1ccsc1C(=O)O [Pyrrothiogatain, 3-(2,5-dimethyl-1H-pyrrol-1-yl)thiophene-2-carboxylic acid]
